Measurements: patent US20260022142A1, “MACROCYCLIC IMMUNOMODULATORS” (Bristol-Myers Squibb Company, priority 2022, published 2026)
Numbered stars: 1 amine (or outer) side, 2 acyl side, 3 side chain; on linkers, the order of the positions; unused ones are H or OH. Bridge positions count the residues as written; N and C are the ends. Square brackets hold non-standard residues; d marks the D form. Peptide text beside a SMILES is read from it. * marks the point of attachment. Bip = N[C@@H](Cc1ccc(-c2ccccc2)cc1)C(=O)O; Phe(3-Me) = Cc1cccc(C[C@H](N)C(=O)O)c1; γGlu = O=C(O)[C@H](CCC(=O)[*:2])N[*:1]; βAsp = O=C(O)[C@H](CC(=O)[*:2])N[*:1]; Cha = N[C@@H](CC1CCCCC1)C(=O)O; Cit = NC(=O)NCCC[C@H](N)C(=O)O; Carboxymethyl = O=C(O)C*; Orn = NCCC[C@H](N)C(=O)O; Aun = NCCCCCCCCCCC(=O)O; Dab = NCC[C@H](N)C(=O)O; Dap = NC[C@H](N)C(=O)O; AEEA = NCCOCCOCC(=O)O

Target: T1, PD-1/PD-L1 interaction (PE-labeled human PD-L1-Ig binding to Jurkat cell line over-expressing human PD-1) (Homo sapiens, UniProt Q15116)
T1 construct: expressed in transfected cells; host or cells: Jurkat
T1 sequence (Q15116 25-288): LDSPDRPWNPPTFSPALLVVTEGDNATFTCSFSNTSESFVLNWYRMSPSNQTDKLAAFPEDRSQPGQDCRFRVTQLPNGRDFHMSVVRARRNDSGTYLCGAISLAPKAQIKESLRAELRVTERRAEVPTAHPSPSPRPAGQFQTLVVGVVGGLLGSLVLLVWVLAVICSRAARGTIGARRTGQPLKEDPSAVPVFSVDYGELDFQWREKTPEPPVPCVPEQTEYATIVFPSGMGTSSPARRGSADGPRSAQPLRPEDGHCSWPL
Test: Jurkat-PD-1 Cell Binding High-Content Screening Assay (CBA)
Assay type: cell-based
Details: Jurkat cell line over-expressing human PD-1; PE-labeled PD-L1-Ig 20 nM final; read-out: Jurkat hPD1-PDL1 IC50
Description: Example 2: Jurkat-PD-1 Cell Binding High-Content Screening Assay (CBA)
Phycoerythrin (PE) was covalently linked to the Ig epitope tag of human PD-L1-Ig and fluorescently-labeled PD-L1-Ig was used for binding studies with a Jurkat cell line over-expressing human PD-1 (Jurkat-PD-1). Briefly, 8×10^3 Jurkat-hPD-1 cells were seeded into 384 well plates in 20 μl of DMEM supplemented with 10% fetal calf serum. 100 nl of compound was added to cells followed by incubation at 37° C. for 2 h. Then, 5 μl of PE-labeled PD-L1-Ig (20 nM final), diluted in DMEM supplemented with 10% fetal calf serum. After 1 hour incubation, cells were fixed with 4% paraformaldehyde in dPBS containing 10 μg/ml Hoechst 33342 and then washed 3× in 100 μl dPBS. Data was collected and processed using a Cell Insight NXT High Content Imager and associated software.

| SMILES | IC50 [nM] |
| --- | --- |
| Cc1cccc(C[C@@H]2NC(=O)[C@H](CC(=O)O)NC(=O)[C@H](Cc3ccc(OCC(=O)O)cc3)NC(=O)[C@H](CN)NC(=O)CSC[C@@H](C(=O)N[C@@H](C)C(=O)N[C@@H](CC(=O)NCCOCCOCC(=O)N[C@@H](CCC(=O)NCCOCCOCC(=O)NCCCCCCCCCCC(=O)O)C(=O)O)C(=O)O)NC(=O)[C@H]([C@@H](C)O)NC(=O)[C@H](C(C)C)NC(=O)[C@H](CC3CCCCC3)NC(=O)[C@H](CCN)NC(=O)[C@@H](CC(C)C)NC(=O)[C@H](CCCN)NC(=O)[C@H](CCCNC(N)=O)NC(=O)[C@H](Cc3ccc(-c4ccccc4)cc3)NC(=O)[C@H](C(C)C)NC2=O)c1 [Compound 1018] ({CH2CO}-[Dap]Y(Carboxymethyl)D[Phe(3-Me)]V[Bip][Cit][Orn][dL][Dab][Cha]VTCA[βAsp][AEEA][γGlu][AEEA][Aun]-OH; thioether N-14) | 8.4 |
| Cc1cccc(C[C@@H]2NC(=O)[C@H](CC(=O)O)NC(=O)[C@H](Cc3ccc(OCC(=O)O)cc3)NC(=O)[C@H](CN)NC(=O)CSC[C@@H](C(=O)N[C@@H](C)C(=O)N[C@@H](CC(=O)O)C(=O)NCCOCCOCC(=O)N[C@@H](CC(=O)NCCOCCOCC(=O)NCCCCCCCCCCC(=O)O)C(=O)O)NC(=O)[C@H]([C@@H](C)O)NC(=O)[C@H](C(C)C)NC(=O)[C@H](CC3CCCCC3)NC(=O)[C@H](CCN)NC(=O)[C@@H](CC(C)C)NC(=O)[C@H](CCCN)NC(=O)[C@H](CCCNC(N)=O)NC(=O)[C@H](Cc3ccc(-c4ccccc4)cc3)NC(=O)[C@H](C(C)C)NC2=O)c1 [Compound 1021] ({CH2CO}-[Dap]Y(Carboxymethyl)D[Phe(3-Me)]V[Bip][Cit][Orn][dL][Dab][Cha]VTCAD[AEEA][βAsp][AEEA][Aun]-OH; thioether N-14) | 8.3 |
| Cc1cccc(C[C@@H]2NC(=O)[C@H](CC(=O)O)NC(=O)[C@H](Cc3ccc(OCC(=O)O)cc3)NC(=O)[C@H](CN)NC(=O)CSC[C@@H](C(=O)N[C@@H](CC(=O)NCCCCCCCCCCC(=O)O)C(=O)O)NC(=O)[C@H]([C@@H](C)O)NC(=O)[C@H](C(C)C)NC(=O)[C@H](CC3CCCCC3)NC(=O)[C@H](CCN)NC(=O)[C@@H](CC(C)C)NC(=O)[C@H](CCCN)NC(=O)[C@H](CCCNC(N)=O)NC(=O)[C@H](Cc3ccc(-c4ccccc4)cc3)NC(=O)[C@H](C(C)C)NC2=O)c1 [Compound 1025] ({CH2CO}-[Dap]Y(Carboxymethyl)D[Phe(3-Me)]V[Bip][Cit][Orn][dL][Dab][Cha]VTC[βAsp][Aun]-OH; thioether N-14) | 10.8 |
| Cc1cccc(C[C@@H]2NC(=O)[C@H](CC(=O)O)NC(=O)[C@H](Cc3ccc(OCC(=O)O)cc3)NC(=O)[C@H](CN)NC(=O)CSC[C@@H](C(=O)N[C@@H](CC(=O)O)C(=O)NCCCCCCCCCCC(=O)O)NC(=O)[C@H]([C@@H](C)O)NC(=O)[C@H](C(C)C)NC(=O)[C@H](CC3CCCCC3)NC(=O)[C@H](CCN)NC(=O)[C@@H](CC(C)C)NC(=O)[C@H](CCCN)NC(=O)[C@H](CCCNC(N)=O)NC(=O)[C@H](Cc3ccc(-c4ccccc4)cc3)NC(=O)[C@H](C(C)C)NC2=O)c1 [Compound 1026] ({CH2CO}-[Dap]Y(Carboxymethyl)D[Phe(3-Me)]V[Bip][Cit][Orn][dL][Dab][Cha]VTCD[Aun]-OH; thioether N-14) | 8.7 |
| Cc1cccc(C[C@@H]2NC(=O)[C@H](CC(=O)O)NC(=O)[C@H](Cc3ccc(OCC(=O)O)cc3)NC(=O)[C@H](CN)NC(=O)CSC[C@@H](C(=O)N[C@@H](CCC(=O)O)C(=O)NCCCCCCCCCCC(=O)O)NC(=O)[C@H]([C@@H](C)O)NC(=O)[C@H](C(C)C)NC(=O)[C@H](CC3CCCCC3)NC(=O)[C@H](CCN)NC(=O)[C@@H](CC(C)C)NC(=O)[C@H](CCCN)NC(=O)[C@H](CCCNC(N)=O)NC(=O)[C@H](Cc3ccc(-c4ccccc4)cc3)NC(=O)[C@H](C(C)C)NC2=O)c1 [Compound 1027] ({CH2CO}-[Dap]Y(Carboxymethyl)D[Phe(3-Me)]V[Bip][Cit][Orn][dL][Dab][Cha]VTCE[Aun]-OH; thioether N-14) | 17.1 |

Next, values leading:

| IC50 [nM] | SMILES |
| --- | --- |
| 6.8 | Cc1cccc(C[C@@H]2NC(=O)[C@H](CC(=O)O)NC(=O)[C@H](Cc3ccc(OCC(=O)O)cc3)NC(=O)[C@H](CN)NC(=O)CSC[C@@H](C(=O)N[C@@H](C)C(=O)N[C@@H](CC(=O)NCCOCCOCC(=O)N[C@@H](CC(=O)O)C(=O)NCCOCCOCC(=O)NCCCCCCCCCCC(=O)O)C(=O)O)NC(=O)[C@H]([C@@H](C)O)NC(=O)[C@H](C(C)C)NC(=O)[C@H](CC3CCCCC3)NC(=O)[C@H](CCN)NC(=O)[C@@H](CC(C)C)NC(=O)[C@H](CCCN)NC(=O)[C@H](CCCNC(N)=O)NC(=O)[C@H](Cc3ccc(-c4ccccc4)cc3)NC(=O)[C@H](C(C)C)NC2=O)c1 [Compound 1019] ({CH2CO}-[Dap]Y(Carboxymethyl)D[Phe(3-Me)]V[Bip][Cit][Orn][dL][Dab][Cha]VTCA[βAsp][AEEA]D[AEEA][Aun]-OH; thioether N-14) |
| 8.3 | Cc1cccc(C[C@@H]2NC(=O)[C@H](CC(=O)O)NC(=O)[C@H](Cc3ccc(OCC(=O)O)cc3)NC(=O)[C@H](CN)NC(=O)CSC[C@@H](C(=O)N[C@@H](C)C(=O)N[C@@H](CC(=O)NCCOCCOCC(=O)N[C@@H](CCC(=O)O)C(=O)NCCOCCOCC(=O)NCCCCCCCCCCC(=O)O)C(=O)O)NC(=O)[C@H]([C@@H](C)O)NC(=O)[C@H](C(C)C)NC(=O)[C@H](CC3CCCCC3)NC(=O)[C@H](CCN)NC(=O)[C@@H](CC(C)C)NC(=O)[C@H](CCCN)NC(=O)[C@H](CCCNC(N)=O)NC(=O)[C@H](Cc3ccc(-c4ccccc4)cc3)NC(=O)[C@H](C(C)C)NC2=O)c1 [Compound 1020] ({CH2CO}-[Dap]Y(Carboxymethyl)D[Phe(3-Me)]V[Bip][Cit][Orn][dL][Dab][Cha]VTCA[βAsp][AEEA]E[AEEA][Aun]-OH; thioether N-14) |
| 5.7 | Cc1cccc(C[C@@H]2NC(=O)[C@H](CC(=O)O)NC(=O)[C@H](Cc3ccc(OCC(=O)O)cc3)NC(=O)[C@H](CN)NC(=O)CSC[C@@H](C(=O)N[C@@H](C)C(=O)N[C@@H](CCC(=O)O)C(=O)NCCOCCOCC(=O)N[C@@H](CC(=O)NCCOCCOCC(=O)NCCCCCCCCCCC(=O)O)C(=O)O)NC(=O)[C@H]([C@@H](C)O)NC(=O)[C@H](C(C)C)NC(=O)[C@H](CC3CCCCC3)NC(=O)[C@H](CCN)NC(=O)[C@@H](CC(C)C)NC(=O)[C@H](CCCN)NC(=O)[C@H](CCCNC(N)=O)NC(=O)[C@H](Cc3ccc(-c4ccccc4)cc3)NC(=O)[C@H](C(C)C)NC2=O)c1 [Compound 1022] ({CH2CO}-[Dap]Y(Carboxymethyl)D[Phe(3-Me)]V[Bip][Cit][Orn][dL][Dab][Cha]VTCAE[AEEA][βAsp][AEEA][Aun]-OH; thioether N-14) |
| 7.9 | Cc1cccc(C[C@@H]2NC(=O)[C@H](CC(=O)O)NC(=O)[C@H](Cc3ccc(OCC(=O)O)cc3)NC(=O)[C@H](CN)NC(=O)CSC[C@@H](C(=O)N[C@@H](C)C(=O)N[C@@H](CC(=O)NCCCCCCCCCCC(=O)O)C(=O)O)NC(=O)[C@H]([C@@H](C)O)NC(=O)[C@H](C(C)C)NC(=O)[C@H](CC3CCCCC3)NC(=O)[C@H](CCN)NC(=O)[C@@H](CC(C)C)NC(=O)[C@H](CCCN)NC(=O)[C@H](CCCNC(N)=O)NC(=O)[C@H](Cc3ccc(-c4ccccc4)cc3)NC(=O)[C@H](C(C)C)NC2=O)c1 [Compound 1023] ({CH2CO}-[Dap]Y(Carboxymethyl)D[Phe(3-Me)]V[Bip][Cit][Orn][dL][Dab][Cha]VTCA[βAsp][Aun]-OH; thioether N-14) |
| 6.6 | Cc1cccc(C[C@@H]2NC(=O)[C@H](CC(=O)O)NC(=O)[C@H](Cc3ccc(OCC(=O)O)cc3)NC(=O)[C@H](CN)NC(=O)CSC[C@@H](C(=O)N[C@@H](CCC(=O)NCCCCCCCCCCC(=O)O)C(=O)O)NC(=O)[C@H]([C@@H](C)O)NC(=O)[C@H](C(C)C)NC(=O)[C@H](CC3CCCCC3)NC(=O)[C@H](CCN)NC(=O)[C@@H](CC(C)C)NC(=O)[C@H](CCCN)NC(=O)[C@H](CCCNC(N)=O)NC(=O)[C@H](Cc3ccc(-c4ccccc4)cc3)NC(=O)[C@H](C(C)C)NC2=O)c1 [Compound 1024] ({CH2CO}-[Dap]Y(Carboxymethyl)D[Phe(3-Me)]V[Bip][Cit][Orn][dL][Dab][Cha]VTC[γGlu][Aun]-OH; thioether N-14) |
| 7.4 | Cc1cccc(C[C@@H]2NC(=O)[C@H](CC(=O)O)NC(=O)[C@H](Cc3ccc(OCC(=O)O)cc3)NC(=O)[C@H](CN)NC(=O)CSC[C@@H](C(=O)N[C@@H](C)C(=O)NCCOCCOCC(=O)NCCCCCCCCCCC(=O)O)NC(=O)[C@H]([C@@H](C)O)NC(=O)[C@H](C(C)C)NC(=O)[C@H](CC3CCCCC3)NC(=O)[C@H](CCN)NC(=O)[C@@H](CC(C)C)NC(=O)[C@H](CCCN)NC(=O)[C@H](CCCNC(N)=O)NC(=O)[C@H](Cc3ccc(-c4ccccc4)cc3)NC(=O)[C@H](C(C)C)NC2=O)c1 [Compound 1029] ({CH2CO}-[Dap]Y(Carboxymethyl)D[Phe(3-Me)]V[Bip][Cit][Orn][dL][Dab][Cha]VTCA[AEEA][Aun]-OH; thioether N-14) |
| 4.3 | Cc1cccc(C[C@@H]2NC(=O)[C@H](CC(=O)O)NC(=O)[C@H](Cc3ccc(OCC(=O)O)cc3)NC(=O)[C@H](CN)NC(=O)CSC[C@@H](C(=O)NCCOCCOCC(=O)N[C@@H](CCC(=O)NCCCCCCCCCCC(=O)O)C(=O)O)NC(=O)[C@H]([C@@H](C)O)NC(=O)[C@H](C(C)C)NC(=O)[C@H](CC3CCCCC3)NC(=O)[C@H](CCN)NC(=O)[C@@H](CC(C)C)NC(=O)[C@H](CCCN)NC(=O)[C@H](CCCNC(N)=O)NC(=O)[C@H](Cc3ccc(-c4ccccc4)cc3)NC(=O)[C@H](C(C)C)NC2=O)c1 [Compound 1030] ({CH2CO}-[Dap]Y(Carboxymethyl)D[Phe(3-Me)]V[Bip][Cit][Orn][dL][Dab][Cha]VTC[AEEA][γGlu][Aun]-OH; thioether N-14) |
